Reference: patent US11571446B2, “Gut microbiota and treatment of cancer” (Sanford Burnham Prebys Medical Discovery Institute, priority 2016, dated 2023)
“Also recorded” adds a separate entry of the source.

Assays:
tumor growth [1] = experiment: Tumor growth in Rnf5−/− mice treated with chemical chaperone; format: in vivo, mouse; settings: treatment to alleviate ER stress
From the text: To understand the mechanism by which altered function of Rnf5^−/− mice might influence the anti-tumor immune response, changes in the intestinal epithelial cells (IECs) were examined, which cells play critical roles in both innate and adaptive immunity.

YUMM1.5 melanoma cells = experiment: YUMM1.5 melanoma tumor growth in WT or Rnf5−/− mice given mucin or inulin; format: in vivo, mouse; settings: 3% mucin in drinking water or 15% inulin diet from 14 days prior to tumor inoculation
From the text: (§1) FIG. 4A depicts plots of human fecal samples cultivated under anaerobic conditions in chemically defined medium with or without exogenous carbohydrate (n=6). Relative abundance of taxa encoding extensive glycosyl hydrolase activities. Cultures with no exogenous sugar were compared to cultures with N-acetyl-mannosamine, galactomannan and porcine gastric mucin. […] FIG. 4C depicts computer simulation identifies the uptake rates of mucin and inulin degradation products in the 2 media predicted to sustain the WT and Rnf5^−/− communities, showing higher predicted consumption of mucin and inulin products in the Rnf5^−/− community. FIG. 4D depicts YUMM1.5 tumor growth in WT or Rnf5^−/− mice provided with 0 or 3% mucin in drinking water starting 14 days prior to tumor inoculation (n=15). FIG. 4E depicts growth of Yumm1.5 tumors in WT or Rnf5^−/− received a control diet or a diet enriched 15% inulin 14 days prior to and during tumor inoculation (n=15). FIG. 4F depicts fold-changes of median abundances between Rnf5^−/−, mucin and inulin treated and WT mice, for 30 taxa that discriminate tumor attenuating and non-attenuating phenotypes.
To test this directly it was investigated whether administration of mucin to WT mice could phenocopy Rnf5^−/− mice, in terms of tumor growth, immune response and gut microbiota composition. […]

SW1 cells = experiment: Growth of SW1 melanoma in TLR4 mutant C3H/HeJ mice given mucin or inulin; format: in vivo, mouse
From the text: (§2) FIG. 6A depicts growth of SW1 TLR4-mutant tumor cells in C3H/HeJ TLR4 mutant mice provided with control diet, alone or with supplemented mucin or inulin starting 14 days prior to tumor inoculation (n=10). FIG. 6B depicts growth of MC-38 tumors in C57BL/6 mice (n=10) that received, starting 14 days prior to tumor inoculation, control diet, alone or with supplemented mucin or inulin. FIG. 6C depicts tumor volume in C57BL/6 mice (n=10 per group) injected (s.c.) with a melanoma cell line (N-Ras mutant; 1×10^6 cells). The mice were provided control or inulin or mucin supplemented diet. When tumors reached a volume of […], mice were treated with MEKi (PD325901) administered by gavage (10 mg/kg, daily), alone or in combination with inulin or mucin, as indicated. Tumor volume was assessed every 4 days.
To determine whether TLR4, the receptor for bacterial lipopolysaccharides, might be involved in the mucin-induced anti-tumor immune phenotype, the growth of mouse melanoma SW1 cells was examined in Tlr4^−/− C3H/HeJ mice.

[2] = test system: tumor-infiltrating immune cells; experiment: Tumor-infiltrating immune cells and immune gene transcription in mucin- or inulin-fed mice; format: in vivo, mouse
From the text: To test this directly it was investigated whether administration of mucin to WT mice could phenocopy Rnf5^−/− mice, in terms of tumor growth, immune response and gut microbiota composition. […] This prompted us to use machine learning to identify phylotypes that best distinguished WT (non-attenuated tumor growth) from Rnf5^−/− and WT mice treated with mucin or inulin (attenuated tumor growth). […] The immune status of mucin and inulin-fed WT mice also shifted to resemble that of Rnf5′ mice.

human fecal samples = experiment: Anaerobic cultivation of fecal samples with a sole carbohydrate source; format: cell-based; settings: in vitro, unpublished results
From the text: as §1
The differences in the gut microbiota of Rnf5^−/− and WT mice before and during tumor formation highlighted a functionally coherent group of species that define a food web enriched for species encoding extensive glycosyl hydrolase activities. […]

MC-38 cells = experiment: Growth of MC-38 colon cancer tumors in C57BL/6 mice given mucin or inulin; format: in vivo, mouse
From the text: as §2
Next, it was determined whether mucin or inulin are also able to impact growth of colon cancer cells, representative of a different tumor type. Growth of MC-38 cells injected to WT mice was attenuated by inulin but not mucin (FIG. 6B). […] Corresponding increase in CD4, CD8, CD45 and DC, including pDC and mDC and MHC-I expression on DC, was identified in tumors subjected to the MEKi+inulin treatment.

tumor growth [3] = experiment: Fecal microbiota analysis of Rnf5−/− and WT tumor bearing mice; format: in vivo, mouse; settings: Rnf5−/− vs WT microbiota
Experimental: The fecal microbiota of Rnf5^−/− and WT mice were analyzed. […] Of those, increased relative abundance of several bacterial taxa (including Bacteroides spp., B. acidifaciens, B. chinchilla, B. xylanisolvens, Parabacteroides merdae, Porphyromonas canis, Rickenella microfusus) and decreased abundance of others (including unclassified Bifidobacterium spp., B. choerinum, Odoribacter denticanis, Parabacteroides goldsteinii, unclassified Olivibacter, Parapedobacter koreensis) typified the microbiome of Rnf5^−/− mice bearing tumors, compared with the WT genotype.
The fecal microbiota of Rnf5−/− and WT mice were further analyzed. Marked differences in the microbial profiles were observed, highlighting differences in community structure depicted in principle component analysis that distinctly segregated Rnf5^−/− from WT microbiota. Analysis of microbiota allowed the identification of 42 phylotypes that distinguished Rnf5^−/− and WT microbiota in tumor bearing mice (FIG. 7). These phylotypes are dominated by a few taxonomic groups, the largest of which fall into the Clostridium cluster (37%). All but four of these may be assigned to Clostrium cluster IV or XIVa, known to be capable of producing butyrate that may influence Foxp3^+ Treg cells expansion. […]

Compound: O=C(O)CCCc1ccccc1 [4-phenylbutyrate]
- tumor growth (tumor growth [1]): did not affect tumor growth

Compound: inulin
- melanoma tumor growth (YUMM1.5 melanoma cells): attenuate melanoma growth; also recorded: reduced tumor growth
- melanoma tumor growth (YUMM1.5 melanoma cells; listed as Inulin): effective inhibition of melanoma growth
- melanoma growth (SW1 cells; SW1 cells in Tlr4−/− C3H/HeJ mice, supplemented diet from 14 days prior to inoculation): failed to significantly attenuate melanoma growth
- CD8+ T cells and TNF-α-producing tumor-infiltrating CD4+ T cells (SW1 cells; SW1 tumors in Tlr4−/− C3H/HeJ mice): not
- tumor infiltrating immune cell phenotype ([2]; WT mice, tumor): increased tumor infiltration of immune cells
- transcription of immune-related genes ([2]; shift to that seen in Rnf5−/− mice, albeit to a lower extent): induced a shift
- communities generated in fecal cultivation (human fecal samples): generated communities similar to that of gastric mucin
- infiltration of MHC-I and MHC-I on DC cells (MC-38 cells; MC-38 tumors): increase in the infiltration
- growth of MC-38 cells (MC-38 cells; WT C57BL/6 mice, supplemented diet from 14 days prior to inoculation): attenuated

Compound: Clostridium clostridioforme
- association of bacterial strain with tumor growth (tumor growth [3]): associated with inhibition of tumor growth
